Patent publication US10448639B2, “Fungicidal pyrazoles” (FMC CORPORATION, priority 2009, dated 2019)

Columns and labels:
[1] = tested on: Puccinia recondita f. sp. tritici; test: Test I: wheat leaf rust, preventive spray on wheat seedlings, visual disease rating; settings: wheat leaf rust, 100 = 100% disease control; for Test I disease control rating: sprayed the day before inoculation, 0 = no disease control relative to controls
Description: (§1) General protocol for preparing test suspensions for Tests A-J: the test compounds were first dissolved in acetone in an amount equal to 3% of the final volume and then suspended at the desired concentration (in ppm) in acetone and purified water (50/50 mix by volume) containing 250 ppm of the surfactant Trem® 014 (polyhydric alcohol esters). The resulting test suspensions were then used in Tests A-J. Spraying a 200 ppm test suspension to the point of run-off on the test plants was the equivalent of a rate of 500 g/ha. Unless otherwise indicated, the rating values indicate a 200 ppm test suspension was used. (An asterisk “*” next to the rating value indicates a 40 ppm test suspension was used.)
The test suspension was sprayed to the point of run-off on wheat seedlings. The following day the seedlings were inoculated with a spore suspension of Puccinia recondita f. sp. tritici (the causal agent of wheat leaf rust) and incubated in a saturated atmosphere at 20° C. for 24 h, and then moved to a growth chamber at 20° C. for 7 days, after which time visual disease ratings were made
A dash (-) indicates no test results.

Botrytis cinerea = test: Test B: tomato Botrytis, preventive spray on tomato seedlings, visual disease rating; settings: tomato Botrytis, 100 = 100% disease control; for Test B disease control rating: 0 = no disease control relative to controls
Septoria tritici = test: Test G: wheat leaf blotch, preventive spray on wheat seedlings, visual disease rating; settings: wheat leaf blotch, 100 = 100% disease control; for Test G disease control rating: sprayed the day before inoculation, 0 = no disease control relative to controls
Alternaria solani = test: Test C: tomato early blight, preventive spray on tomato seedlings, visual disease rating; settings: tomato early blight, 100 = 100% disease control; for Test C disease control rating: 0 = no disease control relative to controls
[2] = tested on: Erysiphe graminis f sp. tritici; test: Test J: wheat powdery mildew, preventive spray on wheat seedlings, visual disease rating; settings: wheat powdery mildew, 100 = 100% disease control; for Test J disease control rating: sprayed the day before inoculation, 0 = no disease control relative to controls
Septoria nodorum = test: Test F: Septoria glume blotch, preventive spray on wheat seedlings, visual disease rating; settings: 100 = 100% disease control; for Test F disease control rating: 0 = no disease control relative to controls
[3] = tested on: Puccinia recondita f. sp. tritici; test: Test H: wheat leaf rust, curative spray on inoculated wheat seedlings, visual disease rating; settings: wheat leaf rust, 100 = 100% disease control; for Test H disease control rating: sprayed after inoculation, 0 = no disease control relative to controls
Description: as §1
Wheat seedlings were inoculated with a spore suspension of Puccinia recondita f. sp. tritici (the causal agent of wheat leaf rust) and incubated in a saturated atmosphere at 20° C. for 24 h, and then moved to a growth chamber at 20° C. for 2 days. At the end of this time the test suspension was sprayed to the point of run-off, and then the seedlings were moved to a growth chamber at 20° C. for 6 days after which time visual disease ratings were made.

[4] = preventive, 0 = no control relative to controls
[5] = 0 = no control relative to controls
[6] = Septoria glume blotch, 0 = no control relative to controls
[7] = curative, 0 = no control relative to controls
[8] = preventive spray, 0 = no control
[9] = Septoria glume blotch on wheat, preventive spray, 0 = no control

SMILES | Test I rating (% disease control) [1, 4] | Test B rating (% disease control) (Botrytis cinerea; [5]) | Test G rating (% disease control) (Septoria tritici; [5]) | Test C rating (% disease control) (Alternaria solani; [5]) | Test J rating (% disease control) [2, 5] | Test F rating (% disease control) (Septoria nodorum; [6]) | Test H rating (% disease control) [3, 7] | Test I rating (% disease control) [1, 8] | Test B rating (% disease control) (Botrytis cinerea; [8]) | Test G rating (% disease control) (Septoria tritici; [8]) | Test C rating (% disease control) (Alternaria solani; [8]) | Test J rating (% disease control) [2, 8] | Test F rating (% disease control) (Septoria nodorum; [9]) | Test H rating (% disease control) ([3]; curative spray, 0 = no control) | other results
COc1ccc(Nc2c(-c3ccc(Cl)cc3Cl)c(C)nn2C)cc1 [compound 355] |  |  |  |  |  |  |  |  |  |  |  |  |  |  | Test I disease control rating [1]: 91%; Test B disease control rating (Botrytis cinerea): 99%; Test G disease control rating (Septoria tritici): 100%; Test C disease control rating (Alternaria solani): 0%; Test J disease control rating [2]: 0%; Test F disease control rating (Septoria nodorum; Septoria glume blotch on wheat): 0%; Test H disease control rating [3]: 3%
Cc1nn(C)c(Nc2c(F)cc(C#N)cc2F)c1-c1ccc(F)cc1F [compound 290] | 100% | 100% | 100% | 99% | 100% | 87% | 0% |  |  |  |  |  |  |  | 
CCn1nc(C)c(-c2ccc(Cl)cc2Cl)c1Nc1ccc(F)cc1F [compound 70] |  |  |  |  |  |  |  | 85% | 99% | 99% | 0% | 98% | 0% | 41% | 
Cc1nn(C)c(Oc2ccc(C#N)cc2F)c1-c1c(F)cccc1Cl [compound 342] |  |  |  |  |  |  |  |  |  |  |  |  |  |  | Test I disease control rating [1]: 100%; Test B disease control rating (Botrytis cinerea): 100%; Test G disease control rating (Septoria tritici): 100%; Test C disease control rating (Alternaria solani): 33%; Test J disease control rating [2]: 100%; Test F disease control rating (Septoria nodorum; Septoria glume blotch on wheat): 99%; Test H disease control rating [3]: 0%
Cc1nn(C)c(Nc2ccc(Cl)cc2)c1-c1ccc(F)cc1Cl [compound 19] |  |  |  |  |  |  |  | 92% | 100% | 96% | 85% | 98% | 0% | 0% | 
Cc1nn(C)c(Nc2c(F)cc(F)cc2F)c1-c1c(F)cccc1F [compound 300] | 99% | 100% | 100% | 99% | 100% | 82% | 9% |  |  |  |  |  |  |  | 
COc1cc(F)c(-c2c(C)nn(C)c2Nc2ncc(F)cc2F)c(F)c1 [compound 128] |  |  |  |  |  |  |  | 100% | 100% | 99% | 100% | 100% | 97% | 66% | 
Cc1nn(Cc2ccccc2)c(Oc2c(F)cc([N+](=O)[O-])cc2F)c1-c1c(F)cc(F)cc1F [compound 53] |  |  |  |  |  |  |  | 0% | 0% | 0% | 0% | 0% | 0% | 0% | 
Cc1nn(C)c(Oc2c(F)cc(C#N)cc2F)c1-c1ccccc1Br [compound 272] | 99% | 100% | 99% | 97% | 99% | 99% | 0% |  |  |  |  |  |  |  | 
Cc1nn(C)c(Nc2ccc(F)cc2Cl)c1-c1c(F)cc(C#N)cc1F [compound 112] |  |  |  |  |  |  |  | 100% | 100% | 99% | 98% | 100% | 99% | 53% | 
Cc1nn(C)c(Oc2ncc(Cl)cc2Cl)c1-c1c(F)cc(F)cc1F [compound 64] |  |  |  |  |  |  |  | 95% | 97% | 100% | 80% | 98% | 0% | 0% | 
COc1cc(F)c(Nc2c(-c3c(F)cc(OC)cc3F)c(C)nn2C)c(F)c1 [compound 83] |  |  |  |  |  |  |  | 96% | 100% | 99% | 100% | 94% | 89% | 99% | 
Cc1nn(C)c(Nc2ccc(F)cc2Cl)c1-c1ccc(F)cc1F [compound 207] | 99% | 100% | 100% | 93% | 100% | 64% | 0% |  |  |  |  |  |  |  | 
Cc1nn(C)c(Nc2c(F)cccc2F)c1-c1ccc(F)cc1F [compound 256] | 99% | 99% | 100% | 99% | 100% | 96% | 0% |  |  |  |  |  |  |  | 
COc1ccc(Nc2c(-c3ccc(F)cc3F)c(C)nn2C)cc1OC [compound 72] |  |  |  |  |  |  |  | 0% | 0% | 0% | 0% | 0% | 0% | 59% | 
Cc1nn(C)c(Oc2ccc(Cl)cc2Cl)c1-c1c(F)cc(F)cc1F [compound 38] |  |  |  |  |  |  |  | 99% | 99% | 97% | 9% | 99% | 0% | 0% | 
COc1ccc(Nc2c(-c3c(F)cc(F)cc3F)c(C)nn2C)cc1OC [compound 93] |  |  |  |  |  |  |  | 9% | 41% | 77% | 0% | 0% | 0% | 0% | 
Cc1nn(C)c(Nc2c(F)cccc2F)c1-c1c(F)cccc1F [compound 247] | 99% | 100% | 100% | 99% | 100% | 60% | 0% |  |  |  |  |  |  |  | 
Cc1nn(C)c(Oc2c(F)cc(C#N)cc2F)c1-c1cc(F)ccc1Cl [compound 276] | 100% | 100% | 100% | 99% | 100% | 98% | 31% |  |  |  |  |  |  |  | 
COc1cccc(Nc2c(-c3c(F)cccc3F)c(C)nn2C)c1Cl [compound 289] | 96% | 100% | 99% | 0% | 97% | 0% | 0% |  |  |  |  |  |  |  | 
Cc1nn(C)c(Nc2ccc(F)c(F)c2)c1-c1c(F)cc(C#N)cc1F [compound 114] |  |  |  |  |  |  |  | 99% | 99% | 99% | 24% | 84% | 69% | 8% | 
COc1cc(F)c(-c2c(C)nn(C)c2Oc2c(F)cc(Br)cc2F)c(F)c1 [compound 90] |  |  |  |  |  |  |  | 98% | 99% | 100% | 95% | 100% | 84% | 0% | 
Cc1nn(C)c(Nc2cc(F)c(F)c(F)c2)c1-c1ccc(F)cc1Cl [compound 132] |  |  |  |  |  |  |  | 94% | 99% | 100% | 0% | 92% | 0% | 0% | 
